# Tests used:
# Assay in all cases: selective drug sensitivity score (sDSS, relative to normal bone marrow) (sDSS (score)); higher = more potent and effective on the cell line relative to normal bone marrow cells
# Details in all cases: 72 h
# [1] = tested on: PF-382
# [2] = tested on: KASUMI-2
# [3] = tested on: TMD5
# [4] = tested on: HAL-01
# [5] = tested on: PEER
# [6] = tested on: MHH-CALL-4
# [7] = tested on: TANOUE
# [8] = tested on: COG-LL-402h
# [9] = tested on: SUP-B15
# [10] = tested on: COG-LL-317
# [11] = tested on: REH
# [12] = tested on: NALM-16
# [13] = tested on: MOLT-14
# [14] = tested on: P12-ICHIKAWA
# [15] = tested on: COG-LL-319h
# [16] = tested on: KASUMI-9
# [17] = tested on: ALL-PO
# [18] = tested on: NALM-6
# [19] = tested on: COG-LL-332h
# [20] = tested on: MOLT-4
# 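Also: ALL cell lines in 384-well plates, five doses spanning 10,000-fold, each plate scaled between vehicle and 100 µmol/L benzalkonium chloride controls, sDSS an adapted area-under-curve metric.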
SMILES,selective drug sensitivity score [1],selective drug sensitivity score [2],selective drug sensitivity score [3],selective drug sensitivity score [4],selective drug sensitivity score [5],selective drug sensitivity score [6],selective drug sensitivity score [7],selective drug sensitivity score [8],selective drug sensitivity score [9],selective drug sensitivity score [10],selective drug sensitivity score [11],selective drug sensitivity score [12],selective drug sensitivity score [13],selective drug sensitivity score [14],selective drug sensitivity score [15],selective drug sensitivity score [16],selective drug sensitivity score [17],selective drug sensitivity score [18],selective drug sensitivity score [19],selective drug sensitivity score [20]
Cc1nc(-c2cn3c(n2)-c2ccc(-c4cnn(C(C)(C)C(N)=O)c4)cc2OCC3)n(C(C)C)n1 [Taselisib] (top concentration 1000 nM),3,4,-4.3,11.1,-4.3,7.9,-4.3,10.9,-1.4,0.8,5.7,4.2,-4.3,-0.3,4.1,6.3,13.2,9.5,0.7,3
Cn1cncc1[C@@](N)(c1ccc(Cl)cc1)c1ccc2c(c1)c(-c1cccc(Cl)c1)cc(=O)n2C [Tipifarnib] (top concentration 10000 nM),13,-1.3,6.8,6.3,10,6.6,-7.5,6.6,8.9,15.3,14,9.9,11.9,9.6,8.2,3.1,9,10.6,9.3,6.8
CN(C)CCOc1ccc(/C(=C(/CCCl)c2ccccc2)c2ccccc2)cc1 [Toremifene] (top concentration 10000 nM),1.08,5.68,0.78,3.18,1.28,0.48,-2.62,-2.72,2.58,-0.22,-1.52,-0.82,2.48,-1.12,3.48,0.58,3.18,1.68,0.98,2.58
CC(=O)Nc1cccc(-n2c(=O)n(C3CC3)c(=O)c3c(Nc4ccc(I)cc4F)n(C)c(=O)c(C)c32)c1 [Trametinib] (top concentration 250 nM),-5.44,5.86,0.16,2.36,-4.44,0.06,-7.74,-2.54,13.6,-7.74,-8.04,-1.24,6.96,-3.64,-0.74,-1.14,-1.44,2.86,-6.04,-4.54
O=C(CCCCCCC(=O)Nc1ccc([C@H]2O[C@@H](CSc3nc(-c4ccccc4)c(-c4ccccc4)o3)C[C@@H](c3ccc(CO)cc3)O2)cc1)NO [Tubacin] (top concentration 10000 nM),8.14,4.14,12.9,2.14,7.14,7.84,2.74,5.04,16.5,10.3,7.44,7.14,8.34,14.9,15.9,6.54,5.74,9.94,14,8.34
CN1CCc2c(c3ccccc3n2Cc2ccc(C(=O)NO)cc2)C1 [Tubastatin_A] (top concentration 10000 nM),0.76,7.06,-0.14,1.76,3.36,-0.14,-0.14,7.46,3.46,1.96,5.86,-0.14,1.06,0.36,8.86,8.86,3.06,1.36,1.46,-0.04
C[C@]1(c2nc3c(C(N)=O)cccc3[nH]2)CCCN1 [Veliparib] (top concentration 10000 nM),-4.08,2.82,-4.18,1.02,-4.18,6.72,-4.18,-3.48,-1.08,1.72,-4.18,-4.18,0.22,-4.18,1.02,1.72,-1.78,-2.48,-1.48,-2.88
CS(=O)(=O)c1ccc(C(=O)Nc2ccc(Cl)c(-c3ccccn3)c2)c(Cl)c1 [Vismodegib] (top concentration 10000 nM),-1.14,3.96,1.26,-1.14,-0.94,0.16,-1.14,-1.14,11.3,-1.14,-1.14,-1.14,-1.14,-1.14,5.56,-0.74,3.56,-1.14,-1.14,-0.44

# Reference: the supplement of paper PMC8967900
